Assay results taken from patent US8975411B2, “Therapeutic agent for neurological diseases” (Neugen Pharma Inc., priority 2010, dated 2015).
pEC50: −log10 of the molar value. ≈ marks a conversion by molar mass, not a printed value.

How the values were obtained:
[1] = Evaluation of solubility in the 1st fluid (pH1.2) of the Japanese pharmacopeia; type: physicochemical; details: 1st fluid (pH 1.2) of the Japanese Pharmacopeia, pH 1.2, simulated gastric fluid, thermodynamic from solid, 25° C.
Procedure: Using the same compounds as in Experimental Example 1, solubility in the 1st fluid (pH1.2) of the Japanese pharmacopeia was measured. The 1st fluid of the Japanese Pharmacopeia was prepared by dissolving sodium chloride in hydrochloric acid (7.0 mL) and water and adjusting the total amount to 1000 mL. The 1st fluid of the Japanese Pharmacopeia (0.6 mL) was poured in a tube and a compound was added until a precipitate was observed. Then, the tube was shaken at 25° C. for 24 hours (200 rotations/minute) to obtain a compound solution. The compound solution was added to a 96-well plate to which a 0.22 μm filter (manufactured by Millipore) was set and centrifugally filtrated (2700 rotations/minute, 10 minutes). Thereafter, the concentration of the compound in the filtrate was obtained from the peak area obtained by HPLC analysis. The solution for a calibration curve was prepared by dissolving a compound in DMSO.
(§1) HPLC analysis conditions will be described below.
Column: TSKgel ODS-80Tm, 4.6×150 mm (manufactured by Tohso Corporation)
Column temperature: 40° C.
Mobile phase: 20 mM sodium 1-decanesulfonate, 40 mM phosphoric acid, 0.2% trimethylamine/acetonitrile

[2] = Evaluation of blood-brain barrier permeability (concentration in brain after oral administration, HPLC); type: in vivo; details: male C57BL/6N mice, 100 mg/kg once orally, fasting
Procedure: For evaluation of blood-brain barrier permeability, pharmacokinetics (the concentration in brain) in mice was analyzed. In the test, male C57BL/6N mice (at 8 weeks of age) were used. Each compound was suspended in 0.5% sodium carboxymethylcellulose (CMC-Na). The dosage amount was 100 mg/kg per body weight of each mouse. Each compound was administered once orally under fasting conditions. At the time points of 30 minutes and one hour after administration, blood was collected from the heart of each mouse. Subsequently, perfusion was performed using physiological saline containing 10% heparin and thereafter the brain was removed. Serum was obtained by centrifuging the blood sample and brain was lyophilized with liquid nitrogen, both of which were stored at −80° C. until use.
Next, as a pre-treatment for HPLC analysis, deproteinization treatment was performed. Acetonitrile was added to the brain sample and homogenization treatment was performed to grind the brain. The resultant sample was centrifuged (10,000×g, 10 min, 4° C.) and the supernatant was collected, allowed to stand still at −80° C. for 10 minutes, thawed and then centrifuged again (10,000×g, 10 min, 4° C.). The obtained supernatant was dried under vacuum. The vacuum-dried sample was dissolved in a 10 mM phosphate buffer (pH7.0) containing 30-50% acetonitrile, allowed to stand still at −80° C. for 10 minute, thawed again and centrifuged at (10,000×g, 10 min, 4° C.) and the supernatant was collected. Furthermore, filtration treatment by a 0.45 μm filter and centrifugation (10,000×g, 4 min, 4° C.) were performed and subsequently filtration treatment by a 0.22 μm filter and centrifugation (10,000×g, 4 min, 4° C.) were performed. The supernatant was then collected and subjected to HPLC analysis. A standard curve was prepared by using the brain of the same type mouse to which none of the compounds was administered.
as §1
Column: CAPCELL PAK C18, 4.6 mm I.D.×150 mm (SHISEIDO)
Eluate: 10 mM phosphate buffer/acetonitrile (30-50%)
Dilution solution: 10 mM phosphate
buffer/acetonitrile (30-50%)

[3] = system: Human neuroblastoma SH-SY5Y cells; test: Oxidative stress-mediated cell death suppressive (AOSCD) activity in differentiated nerve cells, menadione, AlamarBlue; type: cell-based; details: RA-differentiated SH-SY5Y cells, compound 24 hours before menadione, 4 hours oxidative stress treatment, read-out: ED50 (the source's name)
Procedure: A test was performed by using the same compounds as in Test Example 1. Human neuroblastoma SH-SY5Y cells (ATCC, CRL2266 strain) were cultured in DMEM medium (manufactured by Wako Pure Chemical Industries Ltd.) containing 10% FBS, 100 μg/mL streptomycin and 100 U/mL penicillin G. SH-SY5Y cells were suspended in a DMEM/10% FBS medium, seeded in a cell density of 0.75×10^4 cells/well in a 96-well microplate and cultured in the presence of 5% CO2 at 37° C. for 24 hours. Thereafter, the medium was exchanged with DMEM/10% FBS (DMEM/FBS/RA) medium containing 10 μM all-trans-retinoic acid (RA). At the fifth day, each compound was added so as to obtain 2, 4, 6, 8, 10, 20, 30, 40, 50, 60, 80 μM (final concentration) and culture was performed. Note that, in this experiment, a sample in which DMSO alone was added was used as a negative control.
After 24 hours, an oxidative stress agent, menadione, was added so as to obtain a final concentration of 0, 30, 40, 60 and 80 μM and culture was continued in the presence of 5% CO2 at 37° C. (oxidative stress treatment) Cells treated with a 0.1% Triton X-100/DMEM/FBS/RA medium in place of menadione was used as a blank in this assay. After an oxidative stress treatment for 4 hours, the medium was replaced with a medium containing 10% AlamarBlue and culture was performed in the presence of 5% CO2 at 37° C. Twelve hours later, fluorescent was measured at an excitation wavelength of 530 nm/detection wavelength of 580 nm by use of CYTOFLUOR (registered trade mark) Multi-Well Plate Reader Series 4000 to quantify oxidative stress-mediated cell death suppressive (AOSCD) activity. In accordance with a conventional method, ED50 (Effective Dose) (μM) was calculated.

[4] = system: ALS-SOD1^H46R transgenic mice; test: In vivo drug efficacy test: footprint analysis (ambulation); details: 22 weeks of age compared with 18 weeks of age, control showed abnormal ambulation
Procedure: (§2) In this test, ALS-SOD1^H46R transgenic mice carrying and expressing ALS1 pathological SOD1 gene (SOD1^H46R) were used. The mice were housed at 23° C. with a 12 hours light/dark cycle. […] Each compound was dissolved in sterilized water, and subsequently an administration solution was prepared with physiological saline. The dose of each compound was 0.01 mg, 0.1 mg and 1 mg/5 ml/kg per body weight of each individual and the compounds were orally administered once per day until an individual dies (compound-administered group). Mice to which physiological saline (5 ml/kg) alone was administered were used as a control group. As an evaluation method for expression of a neurological sign, a balance beam test (a stainless steel bar of 50 cm in length and 0.9 cm in width) was used.
(§3) Each of the mice was subjected to the test and grade 3 was determined as onset of disease. The motor function of the mice in the compound-administered groups and the control group was evaluated based on a vertical pole test and footprint analysis.
Mice of the administered groups and the control group were subject to footprint analysis at 18 weeks and 22 weeks of age. Blue ink and red ink were applied respectively to the front and hind paws of the test mouse and the mouse was then allowed to walk on paper. From the footprint, irregularity of walking was observed. Data was analyzed by use of GraphPad Prism 5 and SPSS 17.0.

[5] = system: ALS-SOD1^H46R transgenic mice; test: In vivo drug efficacy test: survival period after the onset of disease; details: for survival period after the onset of disease: control 33.4±3.2 days; for survival benefit versus control group: 0.01, 0.1 and 1 mg/kg orally once per day from onset
Procedure: as §2, §3

[6] = system: ALS-SOD1^H46R transgenic mice; test: In vivo drug efficacy test: vertical pole test (motor function); details: 21 weeks of age compared with 17 weeks of age, control significantly reduced
Procedure: as §2, §3
The vertical pole test (stainless steel bar of 50 cm in length and 0.9 cm in width was used) was started when the test mice became 17 weeks of age and carried out once a week. Each mouse was given five trials (noted that a maximum value was 45 cm, and when a mouse reached the vertical ascending distance of 45 cm, the trial was terminated at that point). The maximum value of the 5 trials was defined as motor function value.

[7] = 0.01 mg/kg orally once per day from onset
[8] = 0.1 mg/kg orally once per day from onset
[9] = 1 mg/kg orally once per day from onset

Compound	solubility at 24 h [1] [µg/mL]	Amount of blood brain barrier permeation ([2]; 0.5 h after administration) [ng/100 μg]	Amount of blood brain barrier permeation ([2]; 1 h after administration) [ng/100 μg]	pEC50 [3]	ambulation by footprint analysis [4, 7]	survival period after the onset of disease [5, 7] [days]	survival period after the onset of disease [5, 8] [days]	survival period after the onset of disease [5, 9] [days]	survival benefit versus control group [5]	motor function by vertical pole test [6, 7]	ambulation by footprint analysis [4, 8]	motor function by vertical pole test [6, 8]
Cc1cc(C)c(NCC(=O)Nc2nc(-c3ccccn3)c[nH]2)c(C)c1 [Compound 22, 2-(mesitylamino)-N-(4-pyridin-2-yl-1H-imidazol-2-yl)acetamide]	1810 (≈ 5.4 mM)	108	16	4.68								
Cc1cc(C)c(N(C)CC(=O)Nc2nc(-c3ccccn3)c[nH]2)c(C)c1 [Compound 14, 2-[mesityl(methyl)amino]-N-[4-(pyridin-2-yl)-1H-imidazol-2-yl]acetamide]	3070 (≈ 8.79 mM)	519	370	5.40	no significant change of ambulation	44.5 ± 3.4	42.2 ± 4.5	42.5 ± 2.9	significant survival benefit	relatively retained		
Cc1cc(C)c(OC(C)(C)C(=O)Nc2nc(-c3ccccn3)c[nH]2)c(C)c1 [Compound 12, 2-(mesityloxy)-2-methyl-N-[4-(pyridin-2-yl)-1H-imidazol-2-yl]propanamide]	3760 (≈ 10.3 mM)	258	133	5.40	no significant change of ambulation	36.2 ± 4.0	38.8 ± 4.3	41.0 ± 7.9	significant survival benefit	relatively retained		
Cc1cc(C)c(O[C@H](C)C(=O)Nc2nc(-c3ccccn3)c[nH]2)c(C)c1 [Compound 10, (2R)-2-(mesityloxy)-N-[4-(pyridin-2-yl)-1H-imidazol-2-yl]propanamide]	7880 (≈ 22.5 mM)	256	225	5.10		43.7 ± 7.5	47.7 ± 6.9	41.8 ± 10.5	significant survival benefit		no significant change of ambulation	relatively retained
Cc1cc(C)c(OCC(=O)Nc2nc(-c3ccccn3)c[nH]2)c(C)c1 [Compound (Ie), 2-(mesityloxy)-N-[4-(pyridin-2-yl)-1H-imidazol-2-yl]acetamide, reference compound]	610 (≈ 1.81 mM)	27	8	5.22								
Cc1cc(C)c(OCC(=O)Nc2nc(-c3ccccn3)cs2)c(C)c1 [Compound (X), 2-(mesityloxy)-N-(4-pyridin-2-yl-1,3-thiazol-2-yl)acetamide, reference compound]	30 (≈ 0.0849 mM)	62	26	4.70								
Cc1cc(C)c(O[C@@H](C)C(=O)Nc2nc(-c3ccccn3)c[nH]2)c(C)c1 [Compound 11, (2S)-2-(mesityloxy)-N-[4-(pyridin-2-yl)-1H-imidazol-2-yl]propanamide]	7980 (≈ 22.8 mM)	478	372	5.40								
